MIC and MBC data for 7 compounds are collected here from US8673325B1, “Cosmetic compositions comprising EPA and salicylic acid and methods of making and using same” (Dignity Sciences Limited, priority 2012, dated 2014).

This assay concerns P. acnes NCTC737. The assay can be described thus: MIC and MBC against P. acnes by broth micro-dilution (CLSI M11-A5). The assay is classed as cell-based. The following applies: for MIC: anaerobic 37° C., 48 h, lowest concentration preventing visible growth. The protocol: Neomycin (“NEO”) was obtained and used as a 10 mg/mL solution in sterile saline. P. acnes NCTC737 was obtained from the National Collection of Type Cultures (Porton Down, UK). Minimum inhibitory (MIC) and bactericidal (MBC) concentration determinations MICs and MBCs were determined against P. acnes by broth micro-dilution according to protocol M11-A5 published by the Clinical and Laboratory Standards Institute (CLSI, 2001). […] ([…] Workstation; Don Whitley Scientific Ltd., Shipley, UK). Absorbance readings (A600) for the bacterial suspensions were determined and fresh media was used to adjust the inoculums to 1×10^7 CFU/mL. Inoculum sizes were confirmed by diluting in phosphate-buffered saline (PBS) and plating on SBA. Each well was inoculated with 5 μL of bacterial suspension. Negative control wells contained culture medium only, while positive control wells contained media inoculated with bacterial suspension. Further inoculated wells controlled for the antimicrobial effects of the greatest concentration of solvent (DMSO or ethanol) used in any of the test wells (ca. 10%). Microtitre plates were incubated anaerobically at 37° C. for 48 h, and then MICs were determined as the lowest concentration of each compound that prevented visible bacterial growth. MBCs were determined by plating 50 μL from each well showing no visible growth on to SBA and incubating these plates anaerobically at 37° C. for 96 h. […] MICs and MBCs were performed in duplicate.
Background: Broth dilution looks for growth in wells or tubes with falling amounts of substance.

Where [1] appears, read: Cutibacterium acnes, NCTC737, 48 h, read-out: MIC.
The mark [2] stands for this setting: Cutibacterium acnes, NCTC737, lowest concentration that killed >99.9% of the initial inoculum, read-out: MBC.

In brackets after ≈: the same amount, converted by molar mass. Read-outs that look alike come from different tables or passages of the source.

On to `O=C(O)CCCCCCCC(=O)O` [AZA, azelaic acid], for which the MIC was greater than 4096 µg/mL. The MIC under setting [1] is greater than 4100 µg/mL. The compound also came in with an MBC (MEC) greater than 4096 µg/mL.

For `O=C(OOC(=O)c1ccccc1)c1ccccc1` [BPO, benzoyl peroxide], the MIC under setting [1] came out at 64 µg/mL (≈ 264 µM). Besides, the MBC was greater than 4100 µg/mL under setting [2] and greater than 4096 µg/mL (MEC).

`CC/C=C\C/C=C\C/C=C\C/C=C\C/C=C\CCCC(=O)O` [EPA, eicosapentaenoic acid] showed an MIC of 128 µg/mL (≈ 423 µM). Also, under setting [1], the MIC was 64 to 128 µg/mL (≈ 212 to 423 µM). Further, under setting [2], the MBC is greater than 4100 µg/mL. For the same compound, the MBC (MEC) was greater than 4096 µg/mL.

Turning to `NS(=O)(=O)c1cc(C(=O)O)c(NCc2ccco2)cc1Cl` [FUS, furosemide], the minimal inhibitory concentration (MIC) under setting [1] worked out at 2 µg/mL (≈ 6.05 µM). Moreover, the MBC amounted to 256 µg/mL (≈ 774 µM) under setting [2] and 256 µg/mL (≈ 774 µM) (MEC).

For the compound `CCCCC/C=C\C/C=C\C/C=C\CCCCC(=O)O` [GLA, gamma-linolenic acid], the MIC was determined as 64 µg/mL (≈ 230 µM). The MIC under setting [1] is 64 to 128 µg/mL (≈ 230 to 460 µM). Under setting [2], the MBC is greater than 4100 µg/mL. This compound showed an MBC (MEC) greater than 4096 µg/mL.

As to `NC[C@@H]1O[C@H](O[C@H]2[C@@H](O)[C@H](O[C@@H]3[C@@H](O)[C@H](N)C[C@H](N)[C@H]3O[C@H]3O[C@H](CN)[C@@H](O)[C@H](O)[C@H]3N)O[C@@H]2CO)[C@H](N)[C@@H](O)[C@@H]1O` [NEO, Neomycin], the MIC came to 8 µg/mL (≈ 13 µM). Besides, the minimum bactericidal concentration (MBC) (MEC) worked out at 16 µg/mL (≈ 26 µM). This compound also registered an MBC (lowest concentration that killed >99.9% of the initial inoculum) of 16 µg/mL (≈ 26 µM).

Regarding `O=C(O)c1ccccc1O` [SA, salicylic acid], the MIC under setting [1] came out at 64 µg/mL (≈ 463 µM). Further, the MBC is, setting by setting: under setting [2], greater than 4100 µg/mL; (MEC) greater than 4096 µg/mL.

One may read the MIC as the smallest concentration in the dilution series that meets the test's criterion for growth inhibition. In general, MBC refers to the lowest tested concentration that kills the bacteria rather than only halting them.
